Key:
Sensitized Guinea Pigs = experiment: Slow-Onset (nonhistamine) Bronchospasm Induced by Antigen Challenge in Sensitized Guinea Pigs (SRSPIG); format: in vivo, guinea pig; set-up: concentration or dose not given beside the values; conditions: mepyramine pretreated, five minutes after ovalbumin
Text: Induction and Quantitation of the Slow-Onset (nonhistamine) Bronchospasm Induced by Antigen Challenge in Sensitized Guinea Pigs (SRSPIG)
This guinea pig in vivo model was developed to quantitate the pulmonary effects of nonhistamine mediated, antigen-induced anaphylaxis. Mepyramine pretreatment is used to block the effects of histamine to permit quantitation of the effects of other biologically active mediators. The method is designed to detect drugs which inhibit the release or synthesis "other" mediators, such as leukotriene, thromboxane, etc., or drugs blocking the end organ effects of these mediators. When a sensitized guinea pig is exposed to the sensitizing antigen, it develops a systemic anaphylactic response characterized by increased pulmonary resistance and decreased dynamic compliance (CDYN). Pulmonary resistance is a measure of the changes in transpulmonary pressure and respiratory flow. Dynamic compliance is an expression of the relative changes in tidal volume and transpulmonary pressure. In this model, dynamic compliance is used to measure changes in the elastic propertie of the small airways and pulmonary resistance to measure constrictive responses of the large airways. In human asthma, small airway changes appear to be more closely related to the pathogenesis of disease. Thus, dynamic compliance effects will be weighted more heavily in our analysis of the changes produced by drugs. In the presence of mepyramine, the effects of histamine are blocked. The observed pulmonary effects are thought to be largely leukotriene mediated. In the guinea pig, thromboxanes may also be involved (1,2) and might augment the leukotriene response. Since leukotrienes are not preformed mediators and their effects are slow in onset, in the absence of the histamine effect, a bronchospasm is not seen until approximately 1.5-3 minutes after antigen administration. However, the leukotriene-mediated response is long lasting.
Animals: Male Hartley strain guinea pigs, weighing between 200 and 250 g on delivery, were used. The animals were supplied by the Charles River Co., Wilmington, MA.
Sensitization Procedure: Ovalbumin (2× recrystallized, Miles Laboratories Ltd.) is dissolved (0.2 mg/ml) in saline. The guinea pigs are given a single intraperitoneal injection of 0.5 ml of the stock solution to sensitize them. The animals are maintained normally for four to six weeks before use.
Anesthesia: Surgical anesthesia is induced by giving an IP injection of valium, 5 mg/kg, followed immediately by Innovar-Vet (Pitman-More), 0.7 ml/kg (IM). Each ml of Innovar-Vet contains 0.4 mg fentanyl, 20 mg droperidol, 1.8 mg methylparaben, and 0.2 mg propylparaben.
Surgical Preparation: The anesthetized guinea pig is shaved in the ventral neck region and on the right side of the thorax and affixed supine to a dissecting board. A midline incision is made in the neck and the trachea is exposed. The jugular vein is cannulated with PE 50 tubing to administer drugs and antigen. The trachea is cannulated with PE 240 tubing. If the protocol required measuring blood pressure, the carotid artery is isolated and cannulated with PE 50 tubing. A spear-like cannula is then inserted into the thorax to measure transpulmonary pressure. Needle electrodes are inserted into the musculature of each leg to record electrocardiograms.
Pulmonary Mechanics Methods: The tracheal cannula is connected inline to a Fleisch 000 pneumotachograph (factor calibration 10 cm H2 O=22.2 ml/sec) and a Validyne differential pressure transducer, to measure respiratory flow. Transpulmonary pressure is measured by connecting one side of a Validyne pressure transducer to the side arm of the tracheal cannula and the other side to the cannula inserted into the thorax at approximately the 5th intercostal space.
The pressure and flow signals are fed into Validyne preamplifiers and then transmitted to a pulmonary mechanics computer (Buxco). […]

[1] = tested on: Isolated Guinea Pig Lung Parenchyma; experiment: Smooth Muscle Receptor Agonism-Antagonism Activity Evaluations In Vitro (IVAS), LTC4-induced contraction; format: cell-based; conditions: Cavia porcellus, LTC4-induced contraction
Text: Smooth Muscle Receptor Agonism-Antagonism Activity Evaluations In Vitro (IVAS) Isolated Guinea Pig Lung Parenchyma
The potency of a test compound for receptor stimulation or antagonism, for example, can easily be determined since the concentration of the compound to which the muscle cell, or specialized responsive area on this cell, is exposed can be easily controlled and correlated with the recorded activity of muscle contraction or relaxation.
The procedures described herein are specifically concerned with the definition of a test drug action on isolated lung strips. Drug action is characterized either by an action per se on the tissues or by interaction with known smooth muscle receptor stimulants or antagonists.
Usually, the tests will be used to evaluate the ability of a test compound to antagonize the contraction induced by standard agonists in this case LTC4. A relative potency is derived by comparison with one of the standard blocking drugs. In caution, relative potencies of test compounds to known standards are valid only if full dose response curves are generated and the compound compared generate parallel dose/response curves with common maxima. Appropriate "within-trial" comparisons are also necessary.
Molecular antagonists compete with the agonist for the receptor. […] A physiological antagonist produces a response by action on a different receptor that causes an effect in opposition to the agonism.
A permanent isolated bath system is used which facilitates the vertical suspension of a segment of tissue in a small volume of a specific nutritive buffer. Frittered glass terminals provide dispersed bubbles of 95% oxygen and 5% carbon dioxide at the base of the individual tissue baths and the buffer reservoir. All baths and the reservoir are double-jacketed and water at 37° C. is circulated through the jacket of the baths to provide stable temperature regulation. The baths are arranged so that fresh solution from the reservoir passes through a jacketed glass coil to the base of the bath. The bubbling gas stirs the bath solution. During equilibration, fresh solution enters and excess solution is allowed to overflow. Unless a particular drug is required throughout the experiment and it is incorporated in the buffer, individual drugs are introduced directly into the bath by long hypodermic needles to the base of the bath without disturbing the tissue. Drugs are removed by rapidly draining the tissue bath from the bottom and refilling. Tissues are washed a minimum of six times. The emptying and refilling sequence takes only five seconds.
The contraction and relaxation of the smooth muscle preparation can be recorded either isotonically (change in length) or isometrically (change in tension). Isometric transducers are more sensitive and proportional. Isometric contractions are recorded electronically using Grass FT 0.03C force displacement transducers and Beckman Dynagraph recorders. The tissue is suspended vertically with one end of the segment anchored to the bottom of the bath and the other end attached to the mechanical electrical transducer muscle level. The electrical output of this transducer moves a pen on a moving chart in proportion to the force displacement.
Lung tissue is obtained from normal male guinea pigs. The heart and lungs are removed as a unit, placed in buffer, and the lungs are perfused with buffer by the spontaneously beating heart for several minutes.

IC50 [1] [µM]	SMILES	SRS-PIG, percent inhibition (CDYN) (Sensitized Guinea Pigs) [%]	inhibition at 3 µM ([1]; @ 3 μM) [%]
–	O=C(O)c1ccccc1-c1ccccc1C(=O)Nc1ccc(OCCCc2ccccc2)cc1 [Example 2]	64	–
–	O=C(O)c1ccccc1-c1ccccc1C(=O)Nc1ccc(CCCc2ccccc2)cc1 [Example 16, [1,1'-Biphenyl]-2-carboxylic acid, 2'-[[[4-(3-phenylpropyl]phenyl]amino]carbonyl]-]	33	–
1	O=C(O)c1ccccc1-c1ccccc1C(=O)Nc1ccc(CCc2ccc(Cl)c(Cl)c2)cc1 [Example 3, [1,1'-Biphenyl]-2-carboxylic acid, 2'-[[[4-[2-(3,4-dichlorophenyl)ethyl]phenyl]amino]carbonyl]-]	16	–
–	O=C(O)c1ccccc1-c1ccccc1C(=O)Nc1ccc(CCCc2ccc(Cl)c(Cl)c2)cc1 [Example 1, [1,1'-Biphenyl]-2-carboxylic acid, 2'-[[[4-[3-(3,4-dichlorophenyl)propyl]phenyl]amino]carbonyl]-]	51	90
–	O=C(O)c1ccccc1-c1ccccc1C(=O)Nc1cccc(CCc2ccc(Cl)c(Cl)c2)c1 [Example 4, [1,1'-Biphenyl]-2-carboxylic acid, 2'-[[[3-[2-(3,4-dichlorophenyl)ethyl]phenyl]amino]carbonyl]-]	3	–
–	O=C(O)c1ccccc1-c1ccccc1C(=O)Nc1ccc(CCCCCc2ccccc2)cc1 [Example 21, [1,1'-Biphenyl]-2-carboxylic acid, 2'-[[[4-(5-phenylpentyl)phenyl]amino]carbonyl]-]	21	–

Reference: patent publication US4786755A, “Diphenic acid monoamides” (Warner-Lambert Company, priority 1986, dated 1988)
